Patent CN105732584A, “一种达比加群酯2-酮戊二酸盐晶型i及其制备方法和用途” (Tianjin Institute of Pharmaceutical Research Co Ltd, priority 2014, dated 2016)
In brackets after ≈: the same amount, converted by molar mass.

What was measured:
Format in all cases: physicochemical
[1] = Stability test (stress factors): content determination by HPLC
[2] = Stability test (stress factors): change of appearance
[3] = Solubility in water at 25℃; details: H2O
[4] = 7 days, high temperature and high humidity
[5] = high temperature and high humidity

| change of content with time (in words) ([1]; sealed high temperature, and high temperature with high humidity) | Compound | content remaining [1, 4] [%] | change of colour/appearance (in words) [2, 5] | change of colour/appearance (in words) ([2]; sealed, high temperature) | stability (in words) [1, 5] | remaining at 168 h ([1]; high temperature and humidity storage, 7 days, high temperature and high humidity) [%] | moisture absorption (in words) ([2]; high temperature and high humidity, concluded from colour change and caking) | solubility [3] [µg/mL] |
| --- | --- | --- | --- | --- | --- | --- | --- | --- |
| 含量随时间变化较小 | CCCCCCOC(=O)N=C(N)c1ccc(NCc2nc3cc(C(=O)N(CCC(=O)OCC)c4ccccn4)ccc3n2C)cc1.O=C(O)CCC(=O)C(=O)O [达比加群酯2-酮戊二酸盐晶型I, 3-[[[2-[[[4-[[[(己氧基)羰基]氨基]亚氨甲基]苯基]氨基]甲基]-1-甲基-1H-苯并咪唑-5-基]羰基](吡啶-2-基)氨基]丙酸乙酯2-酮戊二酸盐] | ~98 | 颜色虽有变化但不大 | 颜色几乎无变化 |  |  |  |  |
|  | CCCCCCOC(=O)NC(=N)c1ccc(NCc2nc3cc(C(=O)N(CCC(=O)OCC)c4ccccn4)ccc3n2C)cc1 [达比加群酯甲磺酸盐] | < 20 | 颜色变化很明显且出现板结现象 | 颜色随时间产生明显变化 | 极不稳定 | < 20 | 吸潮严重 | 1800 (≈ 2870 µM) |
